Laboratory results from ChEMBL document CHEMBL3886358, “Quinolyl-containing hydroxamic acid compound and preparation method thereof, and pharmaceutical composition containing this compound and use thereof” (2015).

Assays:
[1] = target: T1, Protein deacetylase HDAC6 (Homo sapiens, UniProt Q9UBN7); experiment: (§1) Inhibition Assay: The inhibitions of activities of HDAC enzymes by the compounds N1'-[3-fluoro-4-[[7-[4-(hydroxyamino)-4-oxobutoxy]-6-methoxy-4-quinolyl]oxy]phenyl]-N1-(4-fluoro phenyl)cyclopropane-1,1-dicarboxamide prepared in Example 9 and N1'-[3-fluoro-4-[[7-[6-(hydroxyamino)-6-oxohexyloxy]-6-methoxy-4-quinolyl]oxy]phenyl]-N1-(4-fluo rophenyl)cyclopropane-1,1-dicarboxamide prepared in Example 13 were measured by Reaction Biology Corporation (Reaction Biology Corp., One Great Valley Parkway, Suite 2, Malvern, PA 19355, USA . http://www.reactionbiology.com/pages/hdac.htm). The HDAC enzymes tested include the following 11 HDAC isoforms: HDAC1, HDAC2, HDAC3, HDAC4, HDAC5, HDAC6, HDAC7, HDAC8, HDAC9, HDAC10 and HDAC11.Specific steps were as follows: The compound of the present invention was dissolved in dimethyl sulfoxide (DMSO) to make a stock solution of 10 mM. The stock solution was diluted in 4-fold series starting from 10 mM to prepare 10 different dosages.
T1 sequence (Q9UBN7 whole entry): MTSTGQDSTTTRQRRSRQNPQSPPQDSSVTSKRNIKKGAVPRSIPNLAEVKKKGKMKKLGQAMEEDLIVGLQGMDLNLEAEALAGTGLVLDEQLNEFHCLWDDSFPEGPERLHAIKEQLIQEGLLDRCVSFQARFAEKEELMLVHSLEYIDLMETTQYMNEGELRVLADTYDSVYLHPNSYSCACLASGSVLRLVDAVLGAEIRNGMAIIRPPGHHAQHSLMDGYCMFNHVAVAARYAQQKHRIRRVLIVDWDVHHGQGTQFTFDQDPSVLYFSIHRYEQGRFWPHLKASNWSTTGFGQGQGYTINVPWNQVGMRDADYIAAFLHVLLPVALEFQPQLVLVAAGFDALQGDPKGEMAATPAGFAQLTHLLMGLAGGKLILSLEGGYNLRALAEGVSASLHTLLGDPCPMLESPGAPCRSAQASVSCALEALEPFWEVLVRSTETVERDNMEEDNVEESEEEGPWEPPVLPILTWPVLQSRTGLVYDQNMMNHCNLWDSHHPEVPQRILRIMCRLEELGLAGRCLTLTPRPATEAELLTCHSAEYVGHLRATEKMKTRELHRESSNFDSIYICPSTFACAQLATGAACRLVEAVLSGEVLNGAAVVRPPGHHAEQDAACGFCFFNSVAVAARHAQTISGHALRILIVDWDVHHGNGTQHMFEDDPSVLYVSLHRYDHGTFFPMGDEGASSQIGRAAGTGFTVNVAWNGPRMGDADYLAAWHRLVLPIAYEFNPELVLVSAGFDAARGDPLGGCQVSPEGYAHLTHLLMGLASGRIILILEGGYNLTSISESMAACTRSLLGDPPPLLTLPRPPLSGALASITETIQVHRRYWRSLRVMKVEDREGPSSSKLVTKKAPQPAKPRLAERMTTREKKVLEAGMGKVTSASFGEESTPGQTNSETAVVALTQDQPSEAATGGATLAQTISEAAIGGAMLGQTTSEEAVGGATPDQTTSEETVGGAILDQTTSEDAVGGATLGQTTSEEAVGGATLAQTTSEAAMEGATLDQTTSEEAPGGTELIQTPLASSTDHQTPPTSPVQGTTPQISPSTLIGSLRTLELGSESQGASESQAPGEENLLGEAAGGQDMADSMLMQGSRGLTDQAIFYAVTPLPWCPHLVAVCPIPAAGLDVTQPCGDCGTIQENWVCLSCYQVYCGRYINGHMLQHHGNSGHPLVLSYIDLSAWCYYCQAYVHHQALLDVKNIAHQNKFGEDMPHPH

Histone deacetylase 5 = Histone deacetylase 5 (Homo sapiens, UniProt Q9UQL6); experiment: as §1
Histone deacetylase 7 = target: T2, Histone deacetylase 7 (Homo sapiens, UniProt Q8WUI4); experiment: as §1
T2 sequence (Q8WUI4 whole entry): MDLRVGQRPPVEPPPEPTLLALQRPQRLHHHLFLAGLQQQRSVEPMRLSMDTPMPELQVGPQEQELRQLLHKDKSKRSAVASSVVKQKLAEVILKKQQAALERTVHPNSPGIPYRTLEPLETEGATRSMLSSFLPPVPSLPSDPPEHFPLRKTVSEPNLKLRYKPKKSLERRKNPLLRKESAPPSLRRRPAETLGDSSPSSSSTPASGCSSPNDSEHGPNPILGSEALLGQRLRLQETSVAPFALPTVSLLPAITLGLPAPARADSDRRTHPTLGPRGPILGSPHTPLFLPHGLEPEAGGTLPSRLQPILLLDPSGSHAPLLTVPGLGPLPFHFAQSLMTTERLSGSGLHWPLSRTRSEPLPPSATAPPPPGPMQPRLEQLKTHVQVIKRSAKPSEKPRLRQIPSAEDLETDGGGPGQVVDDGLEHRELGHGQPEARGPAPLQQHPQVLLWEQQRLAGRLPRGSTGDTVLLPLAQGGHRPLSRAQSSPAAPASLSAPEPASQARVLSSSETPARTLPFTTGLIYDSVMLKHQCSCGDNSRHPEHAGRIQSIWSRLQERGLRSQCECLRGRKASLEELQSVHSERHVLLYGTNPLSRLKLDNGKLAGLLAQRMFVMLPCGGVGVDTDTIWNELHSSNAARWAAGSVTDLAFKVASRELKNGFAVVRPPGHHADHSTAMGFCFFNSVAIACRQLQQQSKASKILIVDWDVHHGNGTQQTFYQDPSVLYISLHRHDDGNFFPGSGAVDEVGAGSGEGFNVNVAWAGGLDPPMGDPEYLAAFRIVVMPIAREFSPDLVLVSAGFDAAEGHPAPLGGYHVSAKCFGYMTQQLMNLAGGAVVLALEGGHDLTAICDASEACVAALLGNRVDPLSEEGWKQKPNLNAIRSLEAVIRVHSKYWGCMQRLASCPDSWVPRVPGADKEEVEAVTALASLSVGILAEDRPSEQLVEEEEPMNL

Histone deacetylase 8 = target: T3, Histone deacetylase 8 (Homo sapiens, UniProt Q9BY41); experiment: as §1
T3 sequence (Q9BY41 whole entry): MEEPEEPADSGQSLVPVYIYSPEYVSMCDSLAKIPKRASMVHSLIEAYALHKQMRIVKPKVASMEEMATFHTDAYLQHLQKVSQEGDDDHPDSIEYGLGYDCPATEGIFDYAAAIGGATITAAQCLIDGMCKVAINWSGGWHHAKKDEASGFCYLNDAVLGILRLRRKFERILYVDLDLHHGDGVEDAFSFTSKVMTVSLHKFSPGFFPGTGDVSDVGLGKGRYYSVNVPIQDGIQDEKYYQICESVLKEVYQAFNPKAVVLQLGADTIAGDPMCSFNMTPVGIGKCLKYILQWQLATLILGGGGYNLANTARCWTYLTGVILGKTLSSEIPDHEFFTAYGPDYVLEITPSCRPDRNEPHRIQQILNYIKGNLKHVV

Sequence of Histone deacetylase 5 (Q9UQL6 whole entry): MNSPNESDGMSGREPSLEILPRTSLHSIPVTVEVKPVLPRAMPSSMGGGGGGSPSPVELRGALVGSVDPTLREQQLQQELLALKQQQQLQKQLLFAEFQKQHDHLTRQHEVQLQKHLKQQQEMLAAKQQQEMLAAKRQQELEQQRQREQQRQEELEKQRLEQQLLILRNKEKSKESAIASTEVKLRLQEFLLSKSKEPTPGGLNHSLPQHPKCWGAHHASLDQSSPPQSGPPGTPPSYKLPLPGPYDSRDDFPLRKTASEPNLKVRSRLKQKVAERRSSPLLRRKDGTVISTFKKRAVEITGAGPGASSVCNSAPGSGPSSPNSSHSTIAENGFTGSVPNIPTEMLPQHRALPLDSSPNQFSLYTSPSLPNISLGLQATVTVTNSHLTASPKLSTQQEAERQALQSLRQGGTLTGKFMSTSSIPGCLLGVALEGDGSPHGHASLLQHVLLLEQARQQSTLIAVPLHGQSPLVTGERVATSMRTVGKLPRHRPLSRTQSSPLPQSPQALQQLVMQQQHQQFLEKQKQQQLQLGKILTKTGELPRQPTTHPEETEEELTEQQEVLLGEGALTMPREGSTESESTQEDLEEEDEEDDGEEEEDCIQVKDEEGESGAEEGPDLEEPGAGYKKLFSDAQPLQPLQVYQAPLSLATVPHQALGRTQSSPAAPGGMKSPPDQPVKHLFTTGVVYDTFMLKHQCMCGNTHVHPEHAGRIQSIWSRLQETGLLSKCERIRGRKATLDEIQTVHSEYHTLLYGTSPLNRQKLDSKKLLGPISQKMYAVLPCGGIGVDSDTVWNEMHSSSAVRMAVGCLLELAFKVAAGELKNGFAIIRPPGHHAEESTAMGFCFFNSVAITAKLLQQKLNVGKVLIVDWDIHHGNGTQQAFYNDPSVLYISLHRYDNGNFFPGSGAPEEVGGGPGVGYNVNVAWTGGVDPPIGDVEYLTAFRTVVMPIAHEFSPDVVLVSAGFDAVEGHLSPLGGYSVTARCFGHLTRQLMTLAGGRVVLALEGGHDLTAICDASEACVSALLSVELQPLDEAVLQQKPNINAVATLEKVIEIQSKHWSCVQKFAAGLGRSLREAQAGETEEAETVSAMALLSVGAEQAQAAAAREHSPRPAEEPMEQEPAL

Compound	IC50 [1]	IC50 (Histone deacetylase 5)	IC50 (Histone deacetylase 7)	IC50 (Histone deacetylase 8)
COc1cc2c(Oc3ccc(NC(=O)C4(C(=O)Nc5ccc(F)cc5)CC4)cc3F)ccnc2cc1OCCCCCC(=O)NO	0.0083 µM	> 10 µM	> 10 µM	1.63 µM
COc1cc2c(Oc3ccc(NC(=O)C4(C(=O)Nc5ccc(F)cc5)CC4)cc3F)ccnc2cc1OCCCC(=O)NO	0.242 µM	> 10 µM	> 10 µM	8.94 µM
